Like-named read-outs stand apart in the source and are kept apart here.
Tested on: SARS-CoV-2-NLuc in A549-hACE2 cells
Assay: microbe, parasite or virus in culture
Assay type: cell-based
[1] = Severe acute respiratory syndrome coronavirus 2, 48 h, read-out: MPro EC50
[2] = Severe acute respiratory syndrome coronavirus 2, 48 h; read-out: MPro EC50

Structure (SMILES)	EC50 [1] [nM]	EC50 [2] [nM]
COc1ccc(Cl)c(-c2cc3[nH]c(=O)n([C@@H]4CCCNC(=O)C4)c(=O)c3s2)c1 (single isomer, unassigned) [Example 23]	12.7	–
Cc1cc(-c2cccc(Cl)c2-c2cc3[nH]c(=O)n(C4CCNC(=O)C4)c(=O)c3s2)cnn1 (centres unmarked) [Example 10, 6-(2-chloro-6-(6-methylpyridazin-4-yl)phenyl)-3-(2-oxopiperidin-4-yl)thieno[3,2-d]pyrimidine-2,4(1H,3H)-dione]	–	5500
Cc1cc(-c2cccc(Cl)c2-c2cc3[nH]c(=O)n(C4CCNC(=O)C4)c(=O)c3s2)cn2ncnc12 (centres unmarked) [Example 11, 6-(2-chloro-6-(8-methyl-[1,2,4]triazolo[1,5-a]pyridin-6-yl)phenyl)-3-(2-oxopiperidin-4-yl)thieno[3,2-d]pyrimidine-2,4(1H,3H)-dione]	–	1210
COc1ccc(Cl)c(-c2cc3c(s2)c(=O)n([C@@H]2CCCNC(=O)C2)c(=O)n3CC#N)c1 [Example 28, (R)-2-(6-(2-chloro-5-methoxyphenyl)-2,4-dioxo-3-(2-oxoazepan-4-yl)-3,4-dihydrothieno[3,2-d]pyrimidin-1(2H)-yl)acetonitrile]	–	5.87
O=C1C[C@H](n2c(=O)[nH]c3cc(-c4ccccc4Cl)ccc3c2=O)CCN1 [Example 6, (R)-7-(2-chlorophenyl)-3-(2-oxopiperidin-4-yl)quinazoline-2,4(1H,3H)-dione]	–	29900
Cc1noc(C)c1-c1cc2[nH]c(=O)n([C@H]3CCNC(=O)C3)c(=O)c2s1 [Example 19, (S)-6-(3,5-dimethylisoxazol-4-yl)-3-(2-oxopiperidin-4-yl)thieno[3,2-d]pyrimidine-2,4(1H,3H)-dione]	–	35800
COc1cc(-c2cc3c(s2)c(=O)n([C@@H]2CCCNC(=O)C2)c(=O)n3CCOC(F)(F)F)c(Cl)cc1F [Example 38, (R)-6-(2-chloro-4-fluoro-5-methoxyphenyl)-3-(2-oxoazepan-4-yl)-1-(2-(trifluoromethoxy)ethyl)thieno[3,2-d]pyrimidine-2,4(1H,3H)-dione]	–	208
COc1ccc(C#N)c(-c2cc3[nH]c(=O)n(C4CCCNC(=O)C4)c(=O)c3s2)c1 (centres unmarked) [Example 25, 2-(2,4-dioxo-3-(2-oxoazepan-4-yl)-1,2,3,4-tetrahydrothieno[3,2-d]pyrimidin-6-yl)-4-methoxybenzonitrile]	–	432
N#CCCn1c(=O)n([C@@H]2CCCNC(=O)C2)c(=O)c2sc(-c3ccccc3C#N)cc21 [Example 52, (R)-2-(1-(2-cyanoethyl)-2,4-dioxo-3-(2-oxoazepan-4-yl)-1,2,3,4-tetrahydrothieno[3,2-d]pyrimidin-6-yl)benzonitrile]	–	619
COc1cc(-c2cc3[nH]c(=O)n([C@@H]4CCCNC(=O)C4)c(=O)c3s2)c(C)cc1F [Example 45, (R)-6-(4-fluoro-5-methoxy-2-methylphenyl)-3-(2-oxoazepan-4-yl)thieno[3,2-d]pyrimidine-2,4(1H,3H)-dione]	–	137
COc1cc(-c2cc3c(s2)c(=O)n([C@@H]2CCCNC(=O)C2)c(=O)n3CCC(=O)N(C)C)c(Cl)cc1F [Example 40, (R)-3-(6-(2-chloro-4-fluoro-5-methoxyphenyl)-2,4-dioxo-3-(2-oxoazepan-4-yl)-3,4-dihydrothieno[3,2-d]pyrimidin-1(2H)-yl)-N,N-dimethylpropanamide]	–	137
COc1cc(-c2cc3c(s2)c(=O)n([C@@H]2CCCNC(=O)C2)c(=O)n3CC(F)F)c(Cl)cc1F [Example 43, (R)-6-(2-chloro-4-fluoro-5-methoxyphenyl)-1-(2,2-difluoroethyl)-3-(2-oxoazepan-4-yl)thieno[3,2-d]pyrimidine-2,4(1H,3H)-dione]	–	34.4
O=C1C[C@H](n2c(=O)[nH]c3cc(-c4ccccc4Cl)sc3c2=O)CCCN1 (single isomer, unassigned) [Example 21]	22.3	–
O=C1CC(n2c(=O)[nH]c3cc(-c4ccccc4Cl)sc3c2=O)CCCN1 (centres unmarked) [Example 8, 6-(2-chlorophenyl)-3-(2-oxoazepan-4-yl)thieno[3,2-d]pyrimidine-2,4(1H,3H)-dione]	–	61.9

— US20250276979A1, “SARS-COV2 MAIN PROTEASE INHIBITORS” (Gilead Sciences, Inc., priority 2024, published 2025)
